Consider 22 compounds from ChEMBL document CHEMBL5352472, “Mode of action of p-quinone derivatives with trypanocidal activity studied by experimental and in silico models” (Eur J Med Chem, 2023).

Data set [1] can be described thus: Cytotoxicity against mouse J774 cells after 24 hrs by WST-1 assay. Type of data set: toxicity, cell-based.
A short description of data set [2]: Selectivity index, ratio of CC50 for cytotoxicity against mouse J774 cells to EC50 for trypanocidal activity against blood stream form Trypanosoma brucei 427. In kind it is toxicity, cell-based. The note with it: read-out: Ratio CC50/EC50.
The subject of data set [3] is Trypanosoma brucei. Briefly: Trypanocidal activity against blood stream form Trypanosoma brucei 427 expressing red-shifted luciferase gene measured after 24 hrs by microplate luminometer analysis. In kind it is functional, organism-based. The following applies: Trypanosoma brucei, 427, 24 h.
The test system of data set [4] is J774. Kind of data set: Cytotoxicity against mouse J774 cells at 50 uM after 24 hrs by WST-1 assay relative to control. The note with it: j774, 24 h. In kind it is toxicity, cell-based.
Data set [5] deals with Trypanosoma brucei. Kind of data set: Redox activity against blood stream form Trypanosoma brucei 427 expressing redox-sensitive green fluorescent protein fused human glutaredoxin assessed as biosensor oxidation by measuring fluorescence at 2 times EC50 incubated for 1 hr by propidium iodide staining based flow cytometric analysis relative to control. Type of data set: functional.

For data set [6], the system named is Trypanosoma brucei. Kind of data set: Redox activity against blood stream form Trypanosoma brucei 427 expressing redox-sensitive green fluorescent protein fused human glutaredoxin assessed as biosensor oxidation by measuring fluorescence at 1 times EC50 incubated for 1 hr by propidium iodide staining based flow cytometric analysis relative to control. In kind it is functional.

Data set [7] deals with J774. Kind of data set: Cytotoxicity against mouse J774 cells at 10 uM after 24 hrs by WST-1 assay relative to control. In kind it is toxicity, cell-based. The following applies: j774, 24 h.
Data set [8] concerns Leishmania infantum. Briefly: Antileishmanial activity against Leishmania infantum MHOM/MA/67/ITMAP263 promastigotes expressing red-shifted luciferase gene infected in mouse J774 cells incubated at 10 uM for 24 hrs by microplate luminometer analysis relative to control. In kind it is functional.
Data set [9] deals with Trypanosoma cruzi. Kind of data set: Trypanocidal activity against Trypanosoma cruzi DM28c amastigotes expressing red-shifted luciferase gene infected in african green monkey Vero cells incubated at 10 uM for 72 hrs by microplate luminometer analysis relative to control. In kind it is functional.
Data set [10] deals with Leishmania infantum. Briefly: Antileishmanial activity against Leishmania infantum MHOM/MA/67/ITMAP263 promastigotes expressing red-shifted luciferase gene infected in mouse J774 cells incubated at 20 uM for 24 hrs by microplate luminometer analysis relative to control. In kind it is functional.
Data set [11] deals with Trypanosoma cruzi. Kind of data set: Trypanocidal activity against Trypanosoma cruzi DM28c amastigotes expressing red-shifted luciferase gene infected in african green monkey Vero cells incubated for 72 hrs by microplate luminometer analysis. In kind it is functional, organism-based.
Data set [12] can be described thus: Selectivity index, ratio of CC50 for cytotoxicity against mouse J774 cells to EC50 for trypanocidal activity against Trypanosoma cruzi DM28c amastigotes. The note with it: read-out: Ratio CC50/EC50. In kind it is toxicity, cell-based.
Data set [13] concerns Leishmania infantum. Kind of data set: Antileishmanial activity against Leishmania infantum MHOM/MA/67/ITMAP263 promastigotes expressing red-shifted luciferase gene infected in mouse J774 cells incubated for 24 hrs by microplate luminometer analysis. Type of data set: functional, organism-based. The note with it: MHOM/MA/67/ITMAP263, J774, 24 h.
A short description of data set [14]: Selectivity index, ratio of CC50 for cytotoxicity against mouse J774 cells to EC50 for trypanocidal activity against Leishmania infantum MHOM/MA/67/ITMAP263 promastigotes. Type of data set: toxicity, cell-based. The note with it: read-out: Ratio CC50/EC50.

The structures appear in SMILES notation. pEC50: −log10 of the molar value. A value given as a limit tells only on which side of the number the result lay.

In turn, `O=C1C=C(Oc2ccc3cccnc3c2)C(=O)c2ccccc21` showed a half-maximal cytotoxic concentration (CC50) at 24 h in data set [1] of less than 50 µM. Besides, the selectivity ratio in data set [2] is less than 13. Besides, in data set [3], the pEC50 was 5.42. Moreover, the Activity in data set [4] worked out at 37%; in [5], 7.92%.

Consider `COc1ccc2cc(OC3=CC(=O)c4ccccc4C3=O)ccc2c1`, for which the CC50 at 24 h in data set [1] is approximately 50 µM. The selectivity ratio in data set [2] is approximately 10. In [3], the pEC50 was 5.28. Moreover, the Activity in data set [4] amounted to 57%; in [5], 59.07%.

In turn, `O=C1C=C(Oc2ccccc2)C(=O)c2oc(-c3ccccc3)cc21` displayed a 50% cytotoxic concentration (CC50) at 24 h in [1] of 37 µM. The selectivity ratio in [2] was 13. The pEC50 in [3] was 5.54. For the same compound, in [6], the Activity was found to be 85.4%.

For the compound `O=C1C=CC(=O)c2sc(-c3ccccc3)nc21`, the figures for the Activity in data set [7] and in data set [5] were 0% and 99.42%, respectively. This compound yielded a CC50 at 24 h in data set [1] of less than 10 µM. Moreover, the selectivity ratio in data set [2] was less than 8. For the same compound, the pEC50 in data set [3] was 5.89.

Consider `O=C1C(Nc2ccccc2)=C(Br)C(=O)c2oc(-c3ccccc3)nc21`, for which the Activity is recorded as 0.5% in data set [7] and 95.87% in data set [5]. In addition, in data set [1], the CC50 at 24 h is less than 10 µM. In addition, the selectivity ratio in [2] is less than 5. In [3], the negative-log EC50 (pEC50) was 5.72.

In data set [1], `O=C1C=CC(=O)c2oc(-c3ccccc3)cc21` registered a cytotoxic concentration (CC50) at 24 h of 118 µM. In data set [2], the selectivity ratio came out at 44. For the same compound, the Activity in [8] came out at 129%; in [5], 95.33%; in data set [9], 88%. Besides, the negative logarithm of the EC50 (pEC50) in data set [3] was 5.57.

`O=C1C=C(Br)C(=O)c2sc(-c3ccccc3)nc21`: it took 61 µM to reach half-maximal cytotoxicity in data set [1] (CC50 at 24 h). For the same compound, the selectivity ratio in data set [2] came out at 40. Also, in data set [3], the negative-log EC50 (pEC50) was 5.82. For the same compound, the Activity in data set [10] is listed as 91%; in data set [5] it was 96.99%; in [9], 78%.

Take `COc1ccc(OC2=CC(=O)c3nc(-c4ccccc4)sc3C2=O)cc1`: the midpoint of cytotoxicity in data set [1], the CC50 at 24 h, lay at 78 µM. Also, the selectivity ratio in data set [2] was found to be 43; in data set [12], 71. Also, the negative-log EC50 (pEC50) was 5.74 in data set [3] and 5.96 in data set [11]. Moreover, the figures for the Activity in data set [10] and in [5] were 90% and 89.22%, respectively.

Take `O=C1C=C(Oc2ccccc2)C(=O)c2sc(-c3ccccc3)nc21`: the Activity in [7] was determined as 40%; in data set [6] it was 95.51%. For the same compound, the CC50 at 24 h in data set [1] was less than 10 µM. The selectivity ratio in [2] is less than 6. In [3], the pEC50 is 5.74.

In data set [1], `O=C1C(Nc2ccccc2)=C(Br)C(=O)c2oc(-c3ccccc3)cc21` yielded a CC50 at 24 h of 57 µM. Moreover, the figures for the selectivity ratio in data set [2] and in data set [12] were 63 and 71, respectively. The results for the Activity in [8] and in data set [6] were 102% and 71.31%, respectively. Also, the pEC50 in data set [3] is 6.05; in [11], 6.10.

For `CC(C)(C)c1ccc(OC2=CC(=O)c3ccccc3C2=O)cc1`, the CC50 at 24 h in [1] is less than 50 µM. Further, the selectivity ratio in [2] is less than 9. Further, the pEC50 in data set [3] was 5.26. In addition, the values for the Activity in [4] and in data set [6] were 24% and 81.7%, respectively.

Consider `O=C1C=C(Br)C(=O)c2oc(-c3ccccc3)nc21`, for which the Activity in [7] is given as 10%; in data set [5] it was 20.95%. This compound also showed a CC50 at 24 h in data set [1] of less than 10 µM. The selectivity ratio in [2] was less than 6. The pEC50 in data set [3] is 5.80.

Consider `CC1CS(=O)(=O)CCN1/N=C/c1ccc([N+](=O)[O-])o1` (stereo not given) [NIFURTIMOX], for which it took 100 µM to reach half-maximal cytotoxicity in data set [1] (CC50 at 24 h). The selectivity ratio was 19 in data set [2] and 142 in [12]. Also, the pEC50 was 5.28 in data set [3] and 6.15 in [11]. Further, the Activity in data set [10] is recorded as 137%.

With `O=C1C(Nc2ccccc2)=C(Br)C(=O)c2sc(-c3ccccc3)nc21`, the Activity in data set [7] came to 117%; in data set [5], 85.67%. Moreover, the half-maximal cytotoxic concentration (CC50) at 24 h in data set [1] is less than 10 µM. Further, in data set [2], the selectivity ratio was less than 22. Also, the negative-log EC50 (pEC50) in data set [3] was 6.30.

In turn, `O=C1C=C(Oc2ccc(CO)cc2)C(=O)c2ccccc21` displayed a CC50 at 24 h in [1] of approximately 50 µM. In addition, the selectivity ratio in data set [2] was approximately 11. The pEC50 in data set [3] was 5.34. The figures for the Activity in data set [4] and in data set [5] were 49% and 87.33%, respectively.

As to `CCCCCCCCCCCCCCCCOP(=O)([O-])OCC[N+](C)(C)C` [MILTEFOSINE], in data set [1], half-maximal cytotoxicity (CC50 at 24 h) was put at 50 µM. The pEC50 in data set [13] was 4.42. For the same compound, the selectivity ratio in [14] is approximately 1.

`C[C@@H]1[C@H](O)[C@@H](C)/C=C/C=C/C=C/C=C/C=C/C=C/C=C/[C@H](O[C@@H]2O[C@H](C)[C@@H](O)[C@H](N)[C@@H]2O)C[C@@H]2O[C@](O)(C[C@@H](O)C[C@@H](O)[C@H](O)CC[C@@H](O)C[C@@H](O)CC(=O)O[C@H]1C)C[C@H](O)[C@H]2C(=O)O` [AMPHOTERICIN B] had a CC50 at 24 h in data set [1] of 9 µM. In addition, the pEC50 in data set [13] is 7.46. For the same compound, in data set [14], the selectivity ratio is 257.

Turning to `O=C1C=C(Br)C(=O)c2oc(-c3ccccc3)cc21`, it took 59 µM to reach half-maximal cytotoxicity in data set [1] (CC50 at 24 h). The selectivity ratio in data set [2] turned out to be 2. The pEC50 in [3] is 4.42. Moreover, the Activity in [6] came out at 99.25%.

Take `O=C1C=CC(=O)c2oc(-c3ccccc3)nc21`: the Activity is listed as 21% in data set [7] and 100% in data set [5]. Moreover, in data set [1], the cytotoxic concentration (CC50) at 24 h is less than 10 µM. Besides, in data set [2], the selectivity ratio was less than 4. For the same compound, the negative logarithm of the EC50 (pEC50) in [3] is 5.64.

`O=C1C=C(Oc2ccc3cc(O)ccc3c2)C(=O)c2ccccc21` yielded a CC50 at 24 h in data set [1] of approximately 50 µM. Also, the selectivity ratio in data set [2] is approximately 14. For the same compound, the negative logarithm of the EC50 (pEC50) in [3] is 5.37. The Activity in data set [4] is 63%; in data set [5] it was 40.54%.

As for `O=C1C=C(Oc2ccc(F)cc2)C(=O)c2sc(-c3ccccc3)nc21`, the figures for the Activity in data set [7] and in data set [5] were 5% and 92.06%, respectively. The CC50 at 24 h in [1] was less than 10 µM. The selectivity ratio in data set [2] is less than 2. The pEC50 in [3] is 5.30.

`O=C1C=C(Oc2ccccc2)C(=O)c2oc(-c3ccccc3)nc21`: in data set [1], the CC50 at 24 h came to 46 µM. For the same compound, the selectivity ratio in data set [2] was 14. Besides, the negative-log EC50 (pEC50) in [3] is 5.48. Also, the Activity in data set [5] amounted to 94.92%.
